SMILES strings stand for the structures.

Test [1] addresses T1, Full-length PRMT5 enzyme co-expressed with MEP50 (Homo sapiens (Human), UniProt O14744). Description: PRMT5 Biochemical Assay. As to conditions: 200 nM histone H4 derived peptide substrate, 1 μM S-Adenosyl methionine, 4 hours at 37° C, Transcreener EPIGEN fluorescence polarisation. On the procedure: Compounds of the invention may be tested for in vitro activity in the following assay: A histone H4 derived peptide is used as substrate (amino acid sequence: […]NH2). Full-length PRMT5 enzyme (NCBI Reference sequence NP-006100.2) was co-expressed with Hiss-MEP50 in insect cells and purified via Nickel immobilized metal affinity and gel filtration chromatography (“the enzyme”).
The 6 μL assay reactions are run in Greiner brand black 384-well low volume plates. All reactions contained assay buffer (phosphate buffered saline, 0.01% (v/v) Tween-20, 0.01% (w/v) albumin from chicken egg white, 1 mM dithiothreitol, 200 nM peptide substrate, 1 μM S-Adenosyl methionine, and 15 ng/reaction enzyme, with the enzyme being omitted from negative control reactions. Compounds were added in a volume of 100 nL from dilution series prepared in DMSO, positive and negative control reactions receiving the same volume DMSO without compound. The plates were sealed with adhesive seals and incubated for 4 hours at 37° C. Reaction progress was measured using the Transcreener™ EPIGEN methyltransferase assay (BellBrook Labs, Madison, Wis.) as recommended by the manufacturer. To each reaction 2 μL detection mix were added, containing coupling enzymes, fluorescence polarisation tracer, and AMP antibody. Plates were incubated for 90 min before being read on a PerkinElmer EnVision™ plate reader in fluorescence polarisation mode.
(In general: In fluorescence polarisation assays a small probe gives low polarisation when free and higher when bound to something large.)

The test system of test [2] is symmetrical dimethylation of arginine (Di-Methyl Histone H4R3) in cell line TE11. Description: PRMT5 Biomarker Assay. As to conditions: Homo sapiens, TE-11; TE11 cells, 72 h incubation, EpiQuik Global Di-Methyl Histone H4R3 ELISA, corrected for total protein. Format: cell-based. On the procedure:
(§1) Compounds of the invention may be tested for potency to inhibit symmetrical dimethylation of arginine in the following assay:
The cell line TE11 was seeded at a density of 12,000 cells per well in 96 well tissue culture plates in DME medium and 10% foetal bovine serum, and allowed to adhere overnight under standard culture conditions (37° C., 5% CO2). Compound dilutions prepared in DMSO were added to the medium, with negative control wells reserved for treatment with DMSO only and positive controls receiving a potent PRMT5 inhibitor. The concentration of the inhibitor had been previously determined to give maximum inhibition of the methylation. After incubation for 72 h, cells were washed twice in ice-cold PBS, lysed in lysis buffer (20 mM Tris pH 7.4, 135 mM NaCl, 1.5 mM MgCl2, 1 mM EGTA, 10% glycerol and 1% Triton-X100), centrifuged at 15,000×g and the supernatants collected for subsequent analysis. The methylation level was determined using the EpiQuik™ Global Di-Methyl Histone H4R3 Quantification ELISA Kit (Epigentek, Farmingdale, N.Y.) as per the manufacturer's recommendations; in parallel the total protein amount in the lysate was quantified using a Lowry protein assay. The methylation level was corrected for the total protein amount of each sample, normalised to the controls, and the data fitted against a four-parameter logistic model to determine the 50% inhibitory concentration (IC50).
(An ELISA detects its analyte on a solid surface through an enzyme-linked reagent.)

Test [3] addresses T1, Full-length PRMT5 enzyme co-expressed with MEP50. Description: Revised PRMT5 Biochemical Assay. As to conditions: 1 μM histone H4 derived peptide substrate, 1 μM S-Adenosyl methionine, 4 hours at 37 degree Celsius, Transcreener EPIGEN fluorescence polarisation. The method, boiled down: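 Full-length human PRMT5 co-expressed with His-MEP50 in insect cells (15 ng/reaction), 1 μM H4-derived peptide and 1 μM SAM in PBS/0.01% Tween-20/egg albumin/1 mM DTT, 4 h at 37 °C. SAH formation read by Transcreener EPIGEN fluorescence polarisation after 90 min detection. IC50 from four-parameter fit of plate-normalised % inhibition.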

Test [4] relates to symmetrical dimethylation of arginine (Di-Methyl Histone H4 Arginine 3) in cell line TE11. Description: Revised PRMT5 Biomarker Assay. As to conditions: Homo sapiens, TE-11; TE11 cells, 72 hours incubation, immunofluorescence, corrected for cell number (Hoechst 33342), plate reader based. On the procedure: as §1
The cell line TE11 was seeded at a density of 6,000 cells per well in 96 well optical quality tissue culture plates in DME medium and 10% foetal bovine serum, and allowed to adhere for 5 hours under standard culture conditions (37 degree Celsius, 5% CO2). Compound dilutions prepared in DMSO were added to the medium, with negative control wells reserved for treatment with DMSO only and positive controls receiving a potent PRMT5 inhibitor compound at 1 μM concentration. After incubation for 72 hours, the cells were fixed with 3.7% formaldehyde in PBS for 30 minutes at room temperature, washed with phosphate buffer saline and blocked with Odyssey blocking buffer (LI-COR, Lincoln, Nebr.). Rabbit anti-Di-Methyl Histone H4 Arginine 3 specific antibody (Epigentek) in Odyssey blocking buffer was added and incubated for 14 hours at 4 degree Celsius. After washing, anti-rabbit secondary antibody labelled with Alexa647 dye (LifeTechnologies) and Hoechst 33342 (1 μg/mL, SigmaAldrich) were added for 1 hour incubation. Plates were washed and read on a PerkinElmer Envision 2103 in fluorescence intensity scanning mode (24 scans across the well area). The methylation level information was corrected for the number of cells as expressed by the Hoechst 33342 stain, converted to percent inhibition relative to controls on the same plate and the data fitted against a four-parameter logistic model to determine the 50% inhibitory concentration (IC50 plate-reader based). Alternatively, the plates were imaged on a PerkinElmer Phenix high content imaging platform. Using a Columbus image analysis pipeline, individual nuclei were located by Hoechst 33342 stain and the methylation level was calculated from the Alexa647-related intensity in the same area. The resulting mean intensity per cell was directly converted to percent inhibition as outlined above (IC50, imager based)).

T1 sequence (O14744 whole entry): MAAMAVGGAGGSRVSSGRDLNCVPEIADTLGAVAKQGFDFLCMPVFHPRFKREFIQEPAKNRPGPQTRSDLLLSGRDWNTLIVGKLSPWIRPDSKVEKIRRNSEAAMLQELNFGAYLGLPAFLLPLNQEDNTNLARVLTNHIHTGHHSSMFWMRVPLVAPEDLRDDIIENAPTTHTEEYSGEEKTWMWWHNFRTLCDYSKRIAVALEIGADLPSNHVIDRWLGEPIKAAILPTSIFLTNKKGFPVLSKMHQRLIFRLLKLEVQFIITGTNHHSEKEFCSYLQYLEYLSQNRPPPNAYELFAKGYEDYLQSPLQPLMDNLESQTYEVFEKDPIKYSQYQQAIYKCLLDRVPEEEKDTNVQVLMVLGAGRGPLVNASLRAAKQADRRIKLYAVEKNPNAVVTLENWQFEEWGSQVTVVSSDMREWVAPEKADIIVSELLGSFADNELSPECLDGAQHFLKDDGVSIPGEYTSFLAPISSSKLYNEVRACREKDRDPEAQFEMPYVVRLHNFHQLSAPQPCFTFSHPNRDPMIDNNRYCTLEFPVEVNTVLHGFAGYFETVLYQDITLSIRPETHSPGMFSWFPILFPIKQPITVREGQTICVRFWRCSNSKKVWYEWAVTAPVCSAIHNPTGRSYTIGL
T1 sequence (Q9BQA1 whole entry partner): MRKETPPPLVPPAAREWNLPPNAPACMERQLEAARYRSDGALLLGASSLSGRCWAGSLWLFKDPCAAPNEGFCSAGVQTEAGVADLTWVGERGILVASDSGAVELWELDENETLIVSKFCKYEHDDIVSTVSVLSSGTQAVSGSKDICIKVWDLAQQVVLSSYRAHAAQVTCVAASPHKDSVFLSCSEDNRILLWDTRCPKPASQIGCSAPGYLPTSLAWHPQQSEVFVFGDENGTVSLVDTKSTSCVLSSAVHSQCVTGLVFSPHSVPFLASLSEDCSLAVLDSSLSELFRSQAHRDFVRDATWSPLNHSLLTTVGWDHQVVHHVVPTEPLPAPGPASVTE

Consider `O=C(NCC(O)CNC1Cc2ccccc2C1)c1ccc(C(=O)N2CCOCC2)cc1` (stereo not shown) [Compound 2, N-(3-((2,3-Dihydro-1H-inden-2-yl)amino)-2-hydroxypropyl)-4-(morpholine-4-carbonyl)benzamide], for which the results for the IC50 in test [1] and in test [2] were 310 nM and 69 nM, respectively.

`Cc1nonc1COc1ccc(C(=O)NC[C@H](O)CNC2Cc3ccccc3C2)cc1` [Compound 8, (R)-N-(3-((2,3-Dihydro-1H-inden-2-yl)amino)-2-hydroxypropyl)-4-((4-methyl-1,2,5-oxadiazol-3-yl)methoxy)benzamide]: the figures for the IC50 in test [1] and in test [2] were 263 nM and 336 nM, respectively.

With `Cn1cc(Oc2ccc(C(=O)NC[C@H](O)CNC3Cc4ccccc4C3)cc2)cn1` [Compound 13, (R)-N-(3-((2,3-Dihydro-1H-inden-2-yl)amino)-2-hydroxypropyl)-4-((1-methyl-1H-pyrazol-4-yl)oxy)benzamide], the IC50 worked out at 634 nM in test [1] and 348 nM in test [2].

With `O=C(NC[C@@H](O)CNC1Cc2ccccc2C1)c1ccc(Cl)cc1` [Compound 14, (S)-4-Chloro-N-(3-((2,3-dihydro-1H-inden-2-yl)amino)-2-hydroxypropyl)benzamide], the IC50 in test [1] came to 445 nM; in test [2], 210 nM.

For the molecule `O=C(NC[C@@H](O)CNC1Cc2ccccc2C1)c1ccc(N2CCOCC2)nc1` [Compound 16, (S)-N-(3-((2,3-Dihydro-1H-inden-2-yl)amino)-2-hydroxypropyl)-6-morpholinonicotinamide], the figures for the IC50 in test [1] and in test [2] were 301 nM and 259 nM, respectively.

With `Cn1cc(Oc2ccc(C(=O)NC[C@@H](O)CNC3Cc4ccccc4C3)cc2)cn1` [Compound 18, (S)-N-(3-((2,3-dihydro-1H-inden-2-yl)amino)-2-hydroxypropyl)-4-((1-methyl-1H-pyrazol-4-yl)oxy)benzamide], the IC50 in test [1] was 238 nM; in test [2], 92 nM.

`O=C(NCC(O)CNC1Cc2ccccc2C1)c1ccc(-c2ccccc2)cc1` (stereo not shown) [Compound 24, N-(3-((2,3-Dihydro-1H-inden-2-yl)amino)-2-hydroxypropyl)-[1,1′-biphenyl]-4-carboxamide]: the results for the IC50 in test [1] and in test [2] were 425 nM and 363 nM, respectively.

Take `O=C(NCC(O)CNC1CCc2ccccc2C1)c1ccc(Cl)cc1` (stereo not shown) [Compound 30, 4-Chloro-N-(2-hydroxy-3-((1,2,3,4-tetrahydronaphthalen-2-yl)amino)propyl)benzamide]: the IC50 in test [1] came out at 905 nM; in test [2], 1910 nM.

As to `C[C@@H]1COCCN1C(=O)c1ccc(C(=O)NC[C@@H](O)CNC2Cc3ccccc3C2)cc1` [Compound 37, N—((S)-3-((2,3-Dihydro-1H-inden-2-yl)amino)-2-hydroxypropyl)-4-((R)-3-methylmorpholine-4-carbonyl)benzamide], the IC50 in test [1] was 95 nM; in test [3] it was 163 nM; in test [2], 19 nM.

Take `O=C(NC[C@@H](O)CNC1Cc2ccccc2C1)c1ccc(C(=O)N2CC3CCC(C2)O3)cc1` [Compound 105, 4-(8-oxa-3-azabicyclo[3.2.1]octane-3-carbonyl)-N-((S)-3-((2,3-dihydro-1H-inden-2-yl)amino)-2-hydroxypropyl)benzamide]: the IC50 in test [4] came out at 0.01 µM; in test [3] it was 196 nM.

`CN(C[C@@H](O)CNC1Cc2ccccc2C1)C(=O)c1ccc(C(=O)N2CCOCC2)cc1` [Compound 111, (S)—N-(3-((2,3-Dihydro-1H-inden-2-yl)amino)-2-hydroxypropyl)-N-methyl-4-(morpholine-4-carbonyl)benzamide]: the IC50 in test [4] was above 2 µM; in test [3], 10400 nM.

In the case of `CCOc1cc(C(=O)N2CCS(=O)(=O)CC2)ccc1C(=O)NC[C@@H](O)CNC1Cc2ccccc2C1` [Compound 114, (S)-N-(3-((2,3-dihydro-1H-inden-2-yl)amino)-2-hydroxypropyl)-4-(1,1-dioxidothiomorpholine-4-carbonyl)-2-ethoxybenzamide], the values for the IC50 in test [4] and in test [3] were 0.024 µM and 66 nM, respectively.

Turning to `O=C(NC[C@@H](O)CNC1Cc2ccccc2C1)c1ccc(C(=O)N2C3CCC2COC3)cc1Cl` [Compound 121, 4-(3-oxa-8-azabicyclo[3.2.1]octane-8-carbonyl)-2-chloro-N-((S)-3-((2,3-dihydro-1H-inden-2-yl)amino)-2-hydroxypropyl)benzamide], the IC50 in test [4] turned out to be 0.016 µM; in test [3], 130 nM.

For `CCOc1cc(C(=O)N2CCOC[C@H]2C)ccc1C(=O)NC[C@@H](O)CNC1Cc2ccccc2C1` [Compound 123, N-((S)-3-((2,3-dihydro-1H-inden-2-yl)amino)-2-hydroxypropyl)-2-ethoxy-4-((R)-3-methylmorpholine-4-carbonyl)benzamide], the values for the IC50 in test [4] and in test [3] were 0.012 µM and 40 nM, respectively.

As for `CCOc1cc(C(=O)N2CCOC[C@@H]2CC)ccc1C(=O)NC[C@@H](O)CNC1Cc2ccccc2C1` [Compound 124, N-((S)-3-((2,3-dihydro-1H-inden-2-yl)amino)-2-hydroxypropyl)-2-ethoxy-4-((S)-3-ethylmorpholine-4-carbonyl)benzamide], the IC50 in test [4] was determined as 0.013 µM; in test [3], 48 nM.

`CCOc1cc(C(=O)N2C[C@H]3C[C@@H]2CO3)ccc1C(=O)NC[C@@H](O)CNC1Cc2ccccc2C1` [Compound 127, 4-((1R,4R)-2-oxa-5-azabicyclo[2.2.1]heptane-5-carbonyl)-N-((S)-3-((2,3-dihydro-1H-inden-2-yl)amino)-2-hydroxypropyl)-2-ethoxybenzamide]: the IC50 in test [4] was 0.002 µM; in test [3], 137 nM.

For `O=C(NC[C@@H](O)CNC1Cc2ccccc2C1)c1ccc(C(=O)N2C3CCC2COC3)cc1F` [Compound 133, 4-(3-oxa-8-azabicyclo[3.2.1]octane-8-carbonyl)-N((S)-3-((2,3-dihydro-1H-inden-2-yl)amino)-2-hydroxypropyl)-2-fluorobenzamide], the figures for the IC50 in test [4] and in test [3] were 0.009 µM and 131 nM, respectively.

For `CCOc1cc(C(=O)N2C3CCCC2COC3)ccc1C(=O)NC[C@@H](O)CNC1Cc2ccccc2C1` [Compound 135, 4-(3-Oxa-9-azabicyclo[3.3.1]nonane-9-carbonyl)-N—((S)-3-((2,3-dihydro-1H-inden-2-yl)amino)-2-hydroxypropyl)-2-ethoxybenzamide], the IC50 stood at 0.0003 µM in test [4] and 15 nM in test [3].

A word on the IC50: it is the midpoint of a concentration-inhibition curve.

For the origin of these results see patent publication US10005792B2, “Aminoindane-, aminotetrahydronaphthalene- and aminobenzocyclobutane-derived PRMT5-inhibitors” (CTXT PTY LTD, priority 2014, dated 2018).
